Read-outs that look alike come from different tables or passages of the source.

The term IC50 denotes the concentration that inhibits the measured activity by half.

In data set [1] the target is T1, MRP3 and MRP4 (basolateral transport) (Homo sapiens, UniProt O15439).
T1 sequence (O15439 1-1325): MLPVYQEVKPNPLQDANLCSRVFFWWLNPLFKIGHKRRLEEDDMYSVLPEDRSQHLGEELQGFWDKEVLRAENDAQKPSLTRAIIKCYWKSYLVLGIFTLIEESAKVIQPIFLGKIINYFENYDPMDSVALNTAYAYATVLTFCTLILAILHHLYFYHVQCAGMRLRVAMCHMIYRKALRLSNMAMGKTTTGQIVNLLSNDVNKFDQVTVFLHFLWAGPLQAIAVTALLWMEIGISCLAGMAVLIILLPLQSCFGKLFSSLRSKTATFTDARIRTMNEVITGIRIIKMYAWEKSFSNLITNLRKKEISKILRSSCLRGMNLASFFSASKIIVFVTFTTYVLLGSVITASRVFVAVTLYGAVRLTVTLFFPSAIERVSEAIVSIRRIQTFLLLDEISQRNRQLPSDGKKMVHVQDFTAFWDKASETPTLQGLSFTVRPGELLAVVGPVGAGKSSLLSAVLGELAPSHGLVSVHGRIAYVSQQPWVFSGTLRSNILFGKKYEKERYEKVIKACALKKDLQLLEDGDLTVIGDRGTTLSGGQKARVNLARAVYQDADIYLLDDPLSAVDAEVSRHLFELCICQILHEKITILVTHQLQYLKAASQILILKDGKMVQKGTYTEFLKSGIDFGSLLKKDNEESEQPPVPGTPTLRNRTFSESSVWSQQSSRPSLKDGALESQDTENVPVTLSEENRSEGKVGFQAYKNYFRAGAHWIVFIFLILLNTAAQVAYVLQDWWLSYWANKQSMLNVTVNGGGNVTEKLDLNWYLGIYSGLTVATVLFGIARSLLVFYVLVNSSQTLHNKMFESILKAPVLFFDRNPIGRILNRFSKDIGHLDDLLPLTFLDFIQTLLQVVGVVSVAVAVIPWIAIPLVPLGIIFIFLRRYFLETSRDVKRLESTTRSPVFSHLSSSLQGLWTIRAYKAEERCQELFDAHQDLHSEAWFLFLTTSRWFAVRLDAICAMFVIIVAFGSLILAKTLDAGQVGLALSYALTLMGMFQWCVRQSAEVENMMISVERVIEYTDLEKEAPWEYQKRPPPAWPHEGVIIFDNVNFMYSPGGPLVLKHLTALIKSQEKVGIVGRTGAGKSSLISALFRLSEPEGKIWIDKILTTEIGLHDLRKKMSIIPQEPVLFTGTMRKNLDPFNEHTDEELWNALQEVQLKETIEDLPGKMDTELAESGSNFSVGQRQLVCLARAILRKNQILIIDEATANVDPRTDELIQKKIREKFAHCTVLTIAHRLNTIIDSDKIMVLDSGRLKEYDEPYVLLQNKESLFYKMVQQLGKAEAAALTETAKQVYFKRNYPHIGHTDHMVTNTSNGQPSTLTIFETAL
Kind of data set: Basolateral inhibition constant: lowest IC50 of the MRP3 and MRP4 vesicular assays. Type of data set: biochemical. As to conditions: membrane vesicles (vesicular transport assay), lowest IC50 of the experimentally derived MRP3 and MRP4 IC50 values. Here is the method: The functional impact of lixivaptan, its three metabolites and tolvaptan on the human ABC (efflux) transporters BSEP and MRP3 and MRP4 was assessed for this project using in vitro vesicular transport inhibition assays. The inhibition of the human SLC (uptake) transporter NTCP was assessed using CHO cells stably expressing human NTCP. The concentration ranges used for the five test articles was determined based on the solubility of each compound in the assay solution. All transporter inhibition assays were conducted in triplicate by Solvo Biotechnology (Szeged, Hungary). For the simulation of bile acid transporter inhibition by lixivaptan in […], parameter values were selected for BSEP canalicular transport, basolateral transport (encompassing both MRP3 and MRP4), and NTCP transport. The parameter values for each include the inhibition constant, defined as the IC50 or Ki value, and the inhibition type, defined as competitive, non-competitive, or mixed inhibition.

For data set [2] the following is noted: cited from earlier work.
On the set-up of data set [3]: method as in proprietary data not shown. The settings on record: rat tissue distribution study; ref proprietary data not shown; cited from earlier work.

In the case of `Cc1ccc(F)cc1C(=O)Nc1ccc(C(=O)N2Cc3cccn3Cc3ccccc32)c(Cl)c1` [Lixivaptan, lixivaptan], in data set [1], the IC50 is 70 µM. Moreover, the “Clinical ALT >3X ULN” value in data set [2] (100 mg BID, 60 days, hyponatremia protocol, ref study CK-LX3401 (not shown)) is “On treatment similar to placebo**”; in data set [2] (400 mg BID, 7 days, ref clinical trial CK-LX1403) it was “no individuals out of 67 showed elevated ALT”. Also, the measured liver-to-plasma ratio in data set [3] is listed as 17.

Values taken from publication PMC6944674, “Comparison of the Hepatotoxic Potential of Two Treatments for Autosomal-Dominant Polycystic Kidney DiseaseUsing Quantitative Systems Toxicology Modeling” (Pharmaceutical Research, 2020).
